pIC50: −log10 of the molar value.
Test system: CWR22RV1 cells
Experiment: Inhibition of proliferation of CWR22RV1 cells (CCK-8)
Type: cell-based, human
Conditions: 6 days culture, read-out: IC50 against CWR22RV1 cells
Procedure: 1) CWR22RV1 cells were subcultured in cell culture medium, and the cells in good growth condition were seeded in a 96-well plate, 80 μL for each well, and the cell number in each well was 1500. The plate was incubated overnight in a 37° C., 5% CO2 cell incubator. 2) The drug was prepared as 30 mM stock solution with dimethyl sulfoxide (DMSO). Prior to use, the stock solution was diluted 3 times with DMSO, and then further diluted as 3-fold gradient to obtain 9 concentration gradients. Then, each concentration of compound was diluted 200 times with the culture solution (ensuring that the DMSO concentration in the culture system was 0.1%), and two replicate wells were set for each concentration. 20 μL of diluted compound solution was added to the cell culture well (with final concentrations of 10 μM, 3.3 μM. 1.1 μM . . . ), and the plate was gently shaken to mix. In addition, 3 negative control wells containing only cells and 3 blank control wells containing only culture medium were included (6 wells were each added 20 μL DMSO diluted 200 times with culture medium). 2. Result detection: (1) After culturing for 6 days, 10 μL CCK-8 was added to each well, and the plate was continually cultured in a 37° C., 5% CO2 cell incubator for 2.5 h. (2) The absorbance (OD value) was detected at 450 nm using a multifunctional microplate reader. (3) The data were analyzed by Dose-response-inhibition equation in the software GraphPad Prism6, and the IC50 value was obtained.

Row | Compound | pIC50
1 | CNC(=O)Nc1ccc2c(c1)CC[C@@]21OC(=O)N(CC(=O)N2CCCC2c2ccccc2C)C1=O (stereo partly drawn) [Example 324] | < 5.70

Same assay, conditions: Homo sapiens, CWR22Rv1, 144 h, 6 days culture, read-out: IC50 against CWR22RV1 cells

Row | Compound | pIC50
2 | CNC(=O)Nc1ccc2c(c1)CC[C@@]21OC(=O)N(CC(=O)N2CCOC[C@@H]2c2ccccc2)C1=O [Example 107] | < 5.70
3 | CNC(=O)Nc1ccc2c(c1)CC[C@@]21OC(=O)N(CC(=O)N2C(C(C)(C)C)OC[C@@H]2c2ccccc2)C1=O (stereo partly drawn) [Example 108] | < 5.70
4 | CNC(=O)Nc1ccc2c(c1)CC[C@@]21OC(=O)N(CC(=O)N2CCCc3cc(-c4ccn(C)n4)c(C(F)(F)F)cc32)C1=O [Example 109, (R)-1-methyl-3-(3′-(2-(6-(1-methyl-1H-pyrazol-3-yl)-7-(trifluoromethyl)-3,4-dihydroquinolin-1-(2H)-yl)-2-oxoethyl)-2′,4′-dioxo-2,3-dihydrospiro[indene-1,5′-oxazolidine]-5-yl)urea] | < 5.70
5 | CNC(=O)Nc1ccc2c(c1)CC[C@@]21OC(=O)N(Cc2ncc(-c3ccccc3)[nH]2)C1=O [Example 110, (R)-1-(2′,4′-dioxo-3′-((5-phenyl-1H-imidazol-2-yl)methyl)-2,3-dihydrospiro[indene-1,5′-oxazolidine]-5-yl)-3-methylurea] | < 5.70
6 | CNC(=O)Nc1ccc2c(c1)CC[C@@]21OC(=O)N(CC(=O)N2CCCC2c2nccn2C)C1=O (stereo partly drawn) [Example 111] | < 5.70
7 | CNC(=O)Nc1ccc2c(c1)CC[C@@]21OC(=O)N(CC(=O)N2CCCC2c2cccc3c2OCO3)C1=O (stereo partly drawn) [Example 112] | < 5.70
8 | Cc1nnn(C)c1-c1ccc2c(c1)CC[C@@]21OC(=O)N(CC(=O)N2[C@@H](C)CC[C@H]2c2ccc(F)cc2)C1=O [Example 221, (R)-5-(1,4-dimethyl-1H-1,2,3-triazole-5-yl)-3′-(2-((2S,5S)-2-(4-fluorophenyl)-5-methylpyrrolidin-1-yl)-2-oxoethyl)-2,3-dihydrospiro[indene-1,5′-oxazolidine]-2′,4′-dione] | < 5.70
9 | CNC(=O)Nc1ccc2c(c1)CC[C@@]21OC(=O)N(CC(=O)N2CCCc3ccc(C(F)(F)F)cc32)C1=O [Example 300, (R)-1-(2′,4′-dioxo-3′-(2-oxo-2-(7-(trifluoromethyl)-3,4-dihydroquinolin-1(2H)-yl)ethyl)-2,3-dihydrospiro[indene-1,5′-oxazolidine]-5-yl)-3-methylurea] | < 5.70
10 | CNC(=O)Nc1ccc2c(c1)CC[C@@]21OC(=O)N(CC(=O)N2CCCc3cc(-c4cnn(C)c4)ccc32)C1=O [Example 302, (R)-1-methyl-3-(3′-(2-(6-(1-methyl-1H-pyrazol-4-yl)-3,4-dihydroquinolin-1 (2H)-yl)-2-oxoethyl)-2′,4′-dioxo-2,3-dihydrospiro[indene-1,5′-oxazolidine]-5-yl)urea] | < 5.70
11 | CNC(=O)Nc1ccc2c(c1)CC[C@@]21OC(=O)N(CC(=O)N2CCCC2c2ccccc2)C1=O (stereo partly drawn) [Example 303, 1-((1R)-2′,4′-dioxo-3′-(2-oxo-2-(2-phenylpyrrolidin-1-yl)ethyl)-2,3-dihydrospiro[indene-1,5′-oxazolidine]-5-yl)-3-methylurea] | 5.70 to 6.30
12 | CNC(=O)Nc1ccc2c(c1)CC[C@@]21OC(=O)N(CC(=O)N2Cc3cccnc3C2)C1=O [Example 304, (R)-1-(2′,4′-dioxo-3′-(2-oxo-2-(5H-pyrrolo[3,4-b]pyridin-6(7H)-yl)ethyl)-2,3-dihydrospiro[indene-1,5′-oxazolidine]-5-yl)-3-methylurea] | < 5.70
13 | CNC(=O)Nc1ccc2c(c1)CC[C@]21OC(=O)N(CC(=O)N2Cc3cccnc3C2)C1=O [Example 305, (S)-1-(3′-(2-(5,7-dihydro-6H-pyrrolo[3,4-b]pyridin-6-yl)-2-oxoethyl)-2′,4′-dioxo-2,3-dihydrospiro[indene-1,5′-oxazolidine]-5-yl)-3-methylurea] | < 5.70
14 | CNC(=O)Nc1ccc2c(c1)CC[C@@]21OC(=O)N(CC(=O)N2CCC[C@@H]2c2ccccc2)C1=O [Example 306, 1-((R)-2′,4′-dioxo-3′-(2-oxo-2-((R)-2-phenylpyrrolidin-1-yl)ethyl)-2,3-dihydrospiro[indene-1,5′-oxazolidine]-5-yl)-3-methylurea] | < 5.70
15 | Cc1noc(C)c1-c1ccc2c(c1)C1(CC1)CC21OC(=O)N(CC(=O)N(Cc2ccc(F)cc2)[C@@H](C)C(F)(F)F)C1=O (stereo partly drawn) [Example 308, 2-(5-(3,5-dimethylisoxazol-4-yl)-2′,4′-dioxo-2,3-dihydrospiro[cyclopropane-indene-1,5′-oxazole]-3′-yl)-N-(4-fluorobenzyl)-N—((S)-1,1,1-trifluoropropan-2-yl)acetamide] | ≥ 6.30
16 | CNC(=O)Nc1ccc2c(c1)CC[C@]21OC(=O)N(CC(=O)N2CCC[C@@H]2c2ccccc2)C1=O [Example 309, 1-((S)-2′,4′-dioxo-3′-(2-oxo-2-((R)-2-phenylpyrrolidin-1-yl)ethyl)-2,3-dihydrospiro[indene-1,5′-oxazolidine]-5-yl)-3-methylurea] | 5.70 to 6.30
17 | CNC(=O)Nc1ccc2c(c1)CC[C@]21OC(=O)N(CC(=O)N2CCC[C@H]2c2ccccc2)C1=O [Example 310, 1-((S)-2′,4′-dioxo-3′-(2-oxo-2-((S)-2-phenylpyrrolidin-1-yl)ethyl)-2,3-dihydrospiro[indene-1,5′-oxazolidine]-5-yl)-3-methylurea] | < 5.70
18 | CNC(=O)Nc1ccc2c(c1)CC[C@]21OC(=O)N(CC(=O)N2CCc3ccccc3C2)C1=O [Example 311, (S)-1-(3′-(2-(3,4-dihydroisoquinolin-2(1H)-yl)-2-oxoethyl)-2′,4′-dioxo-2,3-dihydrospiro[indene-1,5′-oxazolidine]-5-yl)-3-methylurea] | < 5.70
19 | CNC(=O)Nc1ccc2c(c1)CC[C@]21OC(=O)N(CC(=O)N2C[C@H]3C[C@@H]2CO3)C1=O [Example 315, 1-((S)-3′-(2-((1R,4R)-2-oxa-5-azabicyclo[2.2.1]heptan-5-yl)-2-oxoethyl)-2′,4′-dioxo-2,3-dihydrospiro[indene-1,5′-oxazolidine]-5-yl)-3-methylurea] | < 5.70
20 | CNC(=O)Nc1ccc2c(c1)CC[C@]21OC(=O)N(Cc2nnc(-c3ccccc3)o2)C1=O [Example 317, (S)-1-(2′,4′-dioxo-3′-((5-phenyl-1,3,4-oxadiazol-2-yl)methyl)-2,3-dihydrospiro[indene-1,5′-oxazolidine]-5-yl)-3-methylurea] | < 5.70
21 | CNC(=O)Nc1ccc2c(c1)CC[C@@]21OC(=O)N(CC(=O)N2CCCC2c2cccc(C)c2)C1=O (stereo partly drawn) [Example 318] | < 5.70
22 | CNC(=O)Nc1ccc2c(c1)CC[C@@]21OC(=O)N(CC(=O)N2CCCCC2c2ccccc2)C1=O (stereo partly drawn) [Example 322, 1-((1R)-2′,4′-dioxo-3′-(2-oxo-2-(2-phenylpiperidin-1-yl)ethyl)-2,3-dihydrospiro[indene-1,5′-oxazolidine]-5-yl)-3-methylurea] | < 5.70
23 | CNC(=O)Nc1ccc2c(c1)CC[C@@]21OC(=O)N(CC(=O)N2CCCC2c2ccccc2F)C1=O (stereo partly drawn) [Example 323, 1-((1R)-3′-(2-(2-(2-fluorophenyl)pyrrolidin-1-yl)-2-oxoethyl)-2′,4′-dioxo-2,3-dihydrospiro[indene-1,5′-oxazolidine]-5-yl)-3-methylurea] | < 5.70
24 | CNC(=O)Nc1ccc2c(c1)CC[C@@]21OC(=O)N(CC(=O)N2CCC[C@H]2C(=O)N2CC3CC2CO3)C1=O (stereo partly drawn) [Example 328, 1-(3′-(2-((2S)-2-(2-oxa-5-azabicyclo[2.2.1]heptan-5-carbonyl)pyrrolidin-1-yl)-2-oxoethyl)-2′,4′-dioxo-2,3-dihydrospiro[indene-1,5′-oxazolidine]-5-yl)-3-methylurea] | < 5.70
25 | CNC(=O)Nc1ccc2c(c1)CCC21OC(=O)N(CC(=O)N2CCCC2c2ncc[nH]2)C1=O (stereo not drawn) [Example 330, 1-(3′-(2-(2-(1H-imidazol-2-yl)pyrrolidin-1-yl)-2-oxoethyl)-2′,4′-dioxo-2,3-dihydrospiro[indene-1,5′-oxazolidine]-5-yl)-3-methylurea] | < 5.70
26 | CNC(=O)Nc1ccc2c(c1)CC[C@@]21OC(=O)N(CC(=O)N2CCC[C@H]2C#N)C1=O [Example 331, 1-((R)-3′-(2-((S)-2-cyanopyrrolidin-1-yl)-2-oxoethyl)-2′,4′-dioxo-2,3-dihydrospiro[indene-1,5-oxazolidine]-5-yl)-3-methylurea] | < 5.70
27 | CNC(=O)Nc1ccc2c(c1)CC[C@@]21OC(=O)N(CC(=O)N2CCCC2c2ccccn2)C1=O (stereo partly drawn) [Example 332, 1-((1R)-2′,4′-dioxo-3′-(2-oxo-2-(2-(pyridin-2-yl)pyrrolidin-1-yl)ethyl)-2,3-dihydrospiro[indene-1,5′-oxazolidine]-5-yl)-3-methylurea] | < 5.70
28 | CNC(=O)Nc1ccc2c(c1)CC[C@@]21OC(=O)N(CC(=O)N2CCC[C@H]2c2cc(C)n[nH]2)C1=O [Example 333, 1-methyl-3-((R)-3′-(2-((S)-2-(3-methyl-1H-pyrazol-5-yl)pyrrolidin-1-yl)-2-oxoethyl)-2′,4′-dioxo-2,3-dihydrospiro[indene-1,5′-oxazolidine]-5-yl)urea] | < 5.70
29 | CNC(=O)Nc1ccc2c(c1)CC[C@@]21OC(=O)N(CC(=O)N2CCCC2c2cccnc2)C1=O (stereo partly drawn) [Example 334, 1-((1R)-2′,4′-dioxo-3′-(2-oxo-2-(2-(pyridin-3-yl)pyrrolidin-1-yl)ethyl)-2,3-dihydrospiro[indene-1,5′-oxazolidine]-5-yl)-3-methylurea] | < 5.70

Same assay, conditions: Homo sapiens, CWR22Rv1, 144 h, 6 days culture, read-out: IC50 against CWR22RV1 cells (text)

Row | Compound | pIC50
30 | Cc1noc(C)c1-c1ccc2c(c1)C1(CC1)CC21OC(=O)N(CC(=O)N(Cc2ccc(F)cc2)[C@@H](C)C(F)(F)F)C1=O (stereo partly drawn) [Example 308, 2-(5-(3,5-dimethylisoxazol-4-yl)-2′,4′-dioxo-2,3-dihydrospiro[cyclopropane-indene-1,5′-oxazole]-3′-yl)-N-(4-fluorobenzyl)-N—((S)-1,1,1-trifluoropropan-2-yl)acetamide] | ≥ 6.30

Source: US20220087996A1, “Histone acetylase p300 inhibitor and use thereof” (HINOVA PHARMACEUTICALS INC., priority 2018, published 2022)
